Experimental data published in patent publication US12629406B2, “Alterations in endothelin receptors following hemorrhage and resuscitation by centhaquin” (MIDWESTERN UNIVERSITY, priority 2018, dated 2026).

Key:
[1] = Rat hemorrhagic shock, hypertonic saline resuscitation: cardiovascular response (MAP, HR, CO, SVR); type: in vivo; settings: for heart rate (HR): 60 minutes after resuscitation
Method: Animals. Male Sprague-Dawley rats (340 to 380 g) (Envigo, Indianapolis, IN) were housed for at least 4 days in a room with controlled temperature (23±1° C.), humidity (50±10%) and light (6:00 A.M. to 6:00 P.M.) before being used. Food and water were made available continuously. Animal care and use for experimental procedures were approved by the Institutional Animal Care and Use Committee of the Midwestern University. All anesthetic and surgical procedures were in compliance with the guidelines established by the Animal Care Committee.
Determination of cardiovascular response. The animals were anesthetized with urethane dissolved in isotonic saline. Urethane was administered in a dose of 1.5 g per kg body weight via intraperitoneal injection. Urethane was selected as an anesthetic agent, because it produces long lasting (8-10 hours) anesthesia with minimal cardiovascular and respiratory system depression. It produces a level of surgical anesthesia characterized by preservation of cardiovascular reflexes (Maggi and Meli 1986). Briefly, anaesthetized rats were immobilized on a surgical board equipped with controlled heating pad. Blood PO2, Pco2 and pH, were maintained using a tracheotomy cannula connected to a rodent ventilator (Model 683, Harvard Apparatus Inc., Holliston, MA). The right carotid artery was exposed to measure the left ventricular performance. Surgical suture (Deknatel, Research Triangle Park, NC) was secured around the proximal end of the carotid artery and an ultra-miniature pressure-volume (P-V) catheter SPR-869 (Millar Instruments, Houston, TX) was inserted through a tiny incision made near the proximal end of the artery. The P-V terminal of the catheter was connected to MPVS-300 P-V unit through PEC-4D and CEC-4B cables and advanced into the left ventricle to obtain the P-V signals. The signals were continuously aquired (1000 S^−1) using the MPVS-300 P-V unit (AD Instruments, Mountain View, CA, USA) and PowerLab 16/30 data acquisition system (AD Instruments). MAP and HR were measured by cannulating the left femoral artery with pressure catheter SPR-320 (Millar Instruments), connected to the ML221 bridge amplifier (AD Instruments) through AEC-10C connector and the signals were acquired (1000 S^−1) using PowerLab 16/30 data acquisition system (Gulati et al. 2012; Pacher et al. 2008). The left femoral vein was cannulated using PE 50 tubing (Clay Adams, Parsipanny, NJ) and secured for resuscitation.
Induction of Hemorrhagic Shock. Hemorrhage was induced by withdrawing blood from the femoral artery at a rate of approximately 0.5 to 1 mL/min until a MAP of 35 mmHg was reached. This MAP was maintained for 30 min by further withdrawal of blood, if necessary. The hemorrhagic shock model used in the present study is a well-established rodent model of manageable pressure hemorrhage (Buehler et al. 2000; Gulati et al. 1997a; Gulati and Sen 1998). The volume of blood loss was about approximately 8.0 ml in each rat and was similar in various groups, amounting to approximately 40% of the total blood. Measured hematocrit levels were similar in various groups. The duration of blood withdrawal was approximately 15 minutes.
Experimental design. To determine the resuscitative effect of centhaquin on cardiovascular system and plasma cytokines in hemorrhagic shock, rats were randomly divided into five groups, Group 1: Sham control (Non-hemorrhaged) (n=5), Group 2: Hemorrhage with no resuscitation (n=5); Group 3: Hemorrhage followed by resuscitation with 3% hypertonic saline (vehicle) (n=5); Group 4: Hemorrhage followed by resuscitation with vehicle plus centhaquin (0.017 mg/kg) (n=5); and Group 5: Hemorrhage followed by resuscitation with vehicle plus centhaquin (0.05 mg/kg) (n=5). Resuscitation was started 30 min after induction of hemorrhagic shock as an intravenous infusion (1 mL/min) through femoral vein using an infusion pump (Harvard Apparatus Infusion/Withdrawal Pump, Millis, MA). […]

[2] = Renal blood perfusion in hemorrhaged rats with norepinephrine infusion to maintain MAP at 70 mmHg; type: in vivo, rat
Method: Experimental design. To determine the resuscitative effect of centhaquin on cardiovascular system in hemorrhagic shock, rats were randomly divided into three groups: Hemorrhaged rats were administered 100% shed blood volume of either normal saline (vehicle); 100% shed blood volume of either normal saline plus centhaquin (0.01 mg/kg) or 100% shed blood volume of either normal saline plus centhaquin (0.10 mg/kg) during the first 10 minutes of resuscitation. Additional experiments were also carried out where the amount of norepinephrine (a very commonly used vasopressor during resuscitation) required to maintain MAP at 70 mmHg in normal saline (NS) or centhaquin (0.01 mg/kg) treated rats (volume equal to blood loss) was determined.
The femoral vein was cannulated for drug administration, femoral artery was cannulated for measuring mean arterial pressure (MAP) and a laser Doppler flow probe was placed in the renal medulla to measure blood perfusion. Induction of hemorrhagic shock was initiated by withdrawing blood to maintain the MAP at 35 mmHg for 30 minutes. Norepinephrine infusion was carried out to bring and maintain the MAP to 70 mmHg. The effect of centhaquin on cardiovascular functions were measured before the induction of shock, 30 minutes after shock (hemorrhage) and 15, 30, 45, 60, 75 and 90 minutes after resuscitation. […]

[3] = Renal blood flow of hemorrhaged rats subjected to 20 minutes of renal artery occlusion; type: in vivo, rat
Method: Effect of centhaquin on renal blood perfusion of hemorrhaged rats. Hemorrhaged rats were resuscitated with vehicle (saline) or centhaquin low dose (0.01 mg/kg) or high dose (0.1 mg/kg). The effect of centhaquin on renal blood perfusion was measured before the induction of shock, 30 minutes after shock (hemorrhage) and 10, 30, 60, 90 and 120 minutes after resuscitation. […] This improved renal medullary blood perfusion is indicative of a use of centhaquin to prevent or treat injury to the kidneys (FIG. 5). […] A low dose of 0.02 mg/kg of centhaquin was also found to be effective in increasing the renal blood flow of hemorrhaged rats subjected to 20 minutes of renal artery occlusion.

## Cc1cccc(N2CCN(CCc3ccc4ccccc4n3)CC2)c1 [centhaquin, 2-[2-(4-(3-methyphenyl)-1-piperazinyl)]ethyl-quinoline]
[1]; 30 and 60 min post resuscitation
  cardiac output (CO) compared to hypertonic saline alone: significantly increased
[1]; 30 and 60 minutes of resuscitation, versus post-hemorrhage
  systemic vascular resistance (SVR): further decreased
[1]; centhaquin 0.017 mg/kg
  heart rate (HR): 361±10 beats/min
[1]; centhaquin 0.05 mg/kg
  heart rate (HR): 363±10 beats/min
[1]; centhaquin 0.017 and 0.05 mg/kg, for at least 60 min, p<0.01
  mean arterial pressure (MAP) post resuscitation: significant increase
[1]; hypertonic saline or centhaquin
  difference in HR following resuscitation: No significant difference
[2]; hemorrhaged female rats, till the end of experiment
  renal blood perfusion compared to vehicle control following resuscitation: improved
[2]; hemorrhaged male rats
  renal blood perfusion compared to vehicle control following resuscitation: improved
[3]; high dose 0.2 mg/kg, versus 0.02 mg/kg
  increasing the renal blood flow: did not have the same efficacy
[3]; low dose 0.02 mg/kg
  increasing the renal blood flow: effective
